# Results taken from publication PMC12348509, “Classical Paal-Knorr Cyclization for Synthesis of Pyrrole-Based Aryl Hydrazones and In Vitro/In Vivo Evaluation on Pharmacological Models of Parkinson’s Disease” (Molecules, 2025).
# What was measured:
# rat brain mitochondria [1] = assay: MDA production in brain mitochondria, substances applied alone; type: cell-based; settings: 100 µM, vs untreated mitochondria
# Description: To the mitochondria, 0.3 mL of 0.2% thiobarbituric acid and 0.25 mL of sulfuric acid (0.05 M) were added, and the mixture was boiled for 30 min. After boiling, the tubes were placed on ice, and 0.4 mL of n-butanol was added to each tube, which was then centrifuged at 3500× g for 10 min. The amount of MDA was determined spectrophotometrically at 532 nm.
# rat brain microsomes [2] = assay: MDA production in brain microsomes, substances applied alone; type: cell-based; settings: 100 µM, vs untreated microsomes
# Description: The brain was homogenized in nine volumes of 0.1 M Tris buffer containing 0.1 mM dithiothreitol, 0.1 mM phenylmethylsulfonyl fluoride, 0.2 mM EDTA, 1.15% KCl, and 20% (v/v) glycerol (pH 7.4). The resulting homogenate was centrifuged twice at 17,000× g for 30 min. The supernatants from the two centrifugations were pooled and centrifuged twice at 100,000× g for 1 h. The pellet was then frozen in 0.1 M Tris buffer.
# rat brain mitochondria [3] = assay: GSH level in brain mitochondria, substances applied alone; settings: 100 µM, vs untreated mitochondria
# [4] = target: T1, human recombinant MAOA enzyme (hMAOA) (Homo sapiens, UniProt P21397); assay: Human recombinant MAOA enzyme activity (Amplex Red, fluorimetric); type: biochemical; settings: for IC50: read-out: IC50 (EC50), (µM ± SD) hMAOA
# T1 construct: purchased
# T1 sequence (P21397 1-527): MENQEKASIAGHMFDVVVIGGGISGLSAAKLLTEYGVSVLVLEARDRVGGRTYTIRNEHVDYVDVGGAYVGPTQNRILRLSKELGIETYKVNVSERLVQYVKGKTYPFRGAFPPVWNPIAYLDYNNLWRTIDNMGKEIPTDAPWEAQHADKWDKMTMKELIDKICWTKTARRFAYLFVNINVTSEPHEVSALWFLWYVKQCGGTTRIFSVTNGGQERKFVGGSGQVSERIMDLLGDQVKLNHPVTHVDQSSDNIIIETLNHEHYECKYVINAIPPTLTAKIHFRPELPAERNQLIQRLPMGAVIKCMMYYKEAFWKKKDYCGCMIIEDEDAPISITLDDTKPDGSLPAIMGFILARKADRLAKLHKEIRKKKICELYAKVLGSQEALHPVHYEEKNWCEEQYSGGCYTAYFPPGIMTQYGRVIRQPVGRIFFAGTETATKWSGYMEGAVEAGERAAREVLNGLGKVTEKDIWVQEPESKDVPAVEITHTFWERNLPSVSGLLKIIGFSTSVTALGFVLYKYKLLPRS
# Description: (§1) Working solutions of the test substances, reagents, and human recombinant MAOA/B enzyme (hMAOA/B) were prepared in a reaction buffer according to the manufacturer’s instructions. The substances were applied at a final concentration of 1 µM. The substances, together with hMAOA/B, were placed in a 96-well plate (eight samples for each substance), and the plate was placed in an incubator for 30 min (in the dark, at 37 °C). The activity of recombinant human MAOA/B was determined fluorimetrically at two wavelengths (570 nm and 690 nm) with fluorimetric readings performed in a Synergy 2 Microplate Reader. Tyramine hydrochloride was used as the substrate. The activity was determined by detecting H2O2 production. This production is reported by binding to horseradish peroxidase using N-acetyl-3,7-dihydroxyphenoxazine (AmplexRed, Thermo Fisher Scientific, Waltham, MA, USA).
# [5] = target: T2, human recombinant MAOB enzyme (hMAOB) (Homo sapiens, UniProt P27338); assay: Human recombinant MAOB enzyme activity (Amplex Red, fluorimetric); type: biochemical; settings: for inhibition at 1 µM: read-out: hMAOB inhibitory effect (decrease of enzyme activity); for IC50: read-out: IC50 (EC50), (µM ± SD) hMAOB
# T2 construct: purchased
# T2 sequence (P27338 1-520): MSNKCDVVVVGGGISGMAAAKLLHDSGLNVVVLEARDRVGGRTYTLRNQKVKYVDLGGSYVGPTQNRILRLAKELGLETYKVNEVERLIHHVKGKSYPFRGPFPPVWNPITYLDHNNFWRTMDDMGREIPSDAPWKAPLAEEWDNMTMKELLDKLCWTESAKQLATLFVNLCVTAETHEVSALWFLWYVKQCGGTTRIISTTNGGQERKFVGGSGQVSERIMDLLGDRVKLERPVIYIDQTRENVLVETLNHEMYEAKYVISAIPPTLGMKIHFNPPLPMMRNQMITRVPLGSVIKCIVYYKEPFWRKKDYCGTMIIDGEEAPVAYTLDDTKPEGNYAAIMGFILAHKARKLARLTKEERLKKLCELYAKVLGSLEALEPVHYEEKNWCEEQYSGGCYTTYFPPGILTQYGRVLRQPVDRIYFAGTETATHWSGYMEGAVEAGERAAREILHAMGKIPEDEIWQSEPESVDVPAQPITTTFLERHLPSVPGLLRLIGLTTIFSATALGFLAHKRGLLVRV
# Description: as §1
# [6] = test system: Rotenone-induced model of Parkinsonism in mice; assay: Rotenone-induced model of Parkinsonism in mice, brain histopathology (H&E); type: in vivo
# Description: The histological morphology of the mouse brains, mainly the areas of the […] and cerebellum, was examined microscopically.
# The samples from mouse brains were fixed in 10% buffered neutral formalin solution. The fixed materials were dehydrated in ascending grades of alcohol: 50°, 60°, 70°, 80°, 90°, 96°, and absolute alcohol. After dehydration, the samples were cleared with xylene and embedded in paraffin blocks. Sections with a thickness of 5 μm were prepared using a rotary microtome. The sections were attached to slides using histological glue, processed with xylene, rehydrated using a descending alcohol row–absolute alcohol, 96°, 90°, 80°, 70°, 60°, and 50°, and finally stained with Hematoxylin-Eosin [57]. Microscopic examination and photography were performed using a Levenhuk D740T light microscope with an integrated camera.
# rat brain mitochondria [7] = settings: 100 µM combined with t-BuOOH
# MAOB = test system: MAOB; parameters: method as in PMID 36500572; settings: 1 μmol; cited from earlier work
# rat brain microsomes [8] = settings: 100 µM combined with Fe2+/AA
# [9] = 100 µM with 6-OHDA 150 µM, compared to the toxic agent
# [10] = 150 µM, vs untreated synaptosomes
increase of MDA production in brain mitochondria vs control (rat brain mitochondria [1]) [%],increase of MDA production in brain microsomes vs control (rat brain microsomes [2]) [%],decrease of GSH level in brain mitochondria vs control (rat brain mitochondria [3]) [%],Compound,also measured
110,132,25,"CCOC(=O)c1cc(-c2ccc(Br)cc2)n(CCCC(=O)N/N=C/c2ccccc2F)c1C [15c, (E)-Ethyl 5-(4-bromophenyl)-1-(4-(2-(2-fluorobenzylidene)hydrazinyl)-4-oxobutyl)-2-methyl-1H-pyrrole-3-carboxylate]",–
57,63,10,"CCOC(=O)c1cc(-c2ccc(Br)cc2)n(CCCC(=O)N/N=C/c2cccc(F)c2)c1C [15d, (E)-Ethyl 5-(4-bromophenyl)-1-(4-(2-(3-fluorobenzylidene)hydrazinyl)-4-oxobutyl)-2-methyl-1H-pyrrole-3-carboxylate]","IC50 [4]: > 200 µM; SI: hMAOB selectivity index = IC50(hMAOA)/IC50(hMAOB) [5]: >471; inhibition at 1 µM ([5]; 1 µM, vs control (pure hMAOB)): 60%; IC50 [5]: 0.425 µM; brain histology, in combination with rotenone ([6]; mice treated with rotenone plus 15d, light microscopy): preserved histoarchitectonics; brain histology, treated alone ([6]; mouse, in vivo): no microscopically visible changes; preservation of GSH level vs 6-OHDA (rat brain synaptosomes; [9]): 20%; preservation of synaptosomal viability vs 6-OHDA (rat brain synaptosomes; [9]): 15%; neuroprotective effect vs t-BuOOH (GSH level and MDA production) (rat brain mitochondria [7]): most pronounced neuroprotection"
79,93,15,"CCOC(=O)c1cc(-c2ccc(Br)cc2)n(CCCC(=O)O)c1C [compound 13, 4-(5-(4-Bromophenyl)-3-(ethoxycarbonyl)-2-methyl-1H-pyrrole-1-yl)butanoic acid]",–
–,–,–,CCOC(=O)c1cc(-c2ccc(Br)cc2)n(CC(=O)NN)c1C [compound 11],MAOB inhibition (MAOB): 26%
59,52,15,"CCOC(=O)c1cc(-c2ccc(Br)cc2)n(CCCC(=O)N/N=C/c2ccccc2)c1C [15a, (E)-Ethyl 1-(4-(2-benzylidenehydrazinyl)-4-oxobutyl)-5-(4-bromophenyl)-2-methyl-1H-pyrrole-3-carboxylate]","IC50 [4]: > 200 µM; SI: hMAOB selectivity index = IC50(hMAOA)/IC50(hMAOB) [5]: >289; inhibition at 1 µM ([5]; 1 µM, vs control (pure hMAOB)): 50%; IC50 [5]: 0.692 µM; antioxidant effect vs Fe2+/AA (MDA production) (rat brain microsomes [8]): most prominent effect on MDA production"
73,–,25,"CCOC(=O)c1cc(-c2ccc(Br)cc2)n(CCCC(=O)NN)c1C [compound 15, Ethyl 5-(4-bromophenyl)-1-(4-hydrazinyl-4-oxobutyl)-2-methyl-1H-pyrrole-3-carboxylate]",–
99,121,25,"CCOC(=O)c1cc(-c2ccc(Br)cc2)n(CCCC(=O)N/N=C/c2ccccc2O)c1C [15b, (E)-Ethyl 5-(4-bromophenyl)-1-(4-(2-(2-hydroxybenzylidene)hydrazinyl)-4-oxobutyl)-2-methyl-1H-pyrrole-3-carboxylate]",–
143,158,20,"CCOC(=O)c1cc(-c2ccc(Br)cc2)n(CCCC(=O)N/N=C/c2cccc(C=O)c2)c1C [15g, (E)-Ethyl 5-(4-bromophenyl)-1-(4-(2-(3-formylbenzylidene)hydrazinyl)-4-oxobutyl)-2-methyl-1H-pyrrole-3-carboxylate]",–
119,149,20,"CCOC(=O)c1cc(-c2ccc(Br)cc2)n(CCCC(=O)N/N=C/c2ccc(OC)cc2)c1C [15e, (E)-Ethyl 5-(4-bromophenyl)-1-(4-(2-(4-methoxybenzylidene)hydrazinyl)-4-oxobutyl)-2-methyl-1H-pyrrole-3-carboxylate]",–
–,–,–,"NCCc1cc(O)c(O)cc1O [6-OHDA, 6-hydroxydopamine, reference compound]",decrease of GSH level in synaptosomes by the toxic agent alone (rat brain synaptosomes; [10]): 50%; decrease of synaptosomal viability by the toxic agent alone (rat brain synaptosomes; [10]): 50%
–,–,–,"C=C(C)[C@H]1Cc2c(ccc3c2O[C@@H]2COc4cc(OC)c(OC)cc4[C@@H]2C3=O)O1 [rotenone, reference compound]","brain histology, rotenone alone ([6]; cerebral cortex of mice treated with rotenone): distinct degenerative-necrotic changes"
–,–,–,CCOC(=O)c1cc(-c2ccc(Br)cc2)n(CCC(=O)NN)c1C [compound 12],MAOB inhibition (MAOB): 50%

Compound,increase of MDA production in brain mitochondria vs control (rat brain mitochondria [1]) [%],increase of MDA production in brain microsomes vs control (rat brain microsomes [2]) [%],decrease of GSH level in brain mitochondria vs control (rat brain mitochondria [3]) [%],also measured
"CCOC(=O)c1cc(-c2ccc(Br)cc2)n(CCCC(=O)N/N=C/c2ccc(N(C)C)cc2)c1C [15f, (E)-Ethyl 5-(4-bromophenyl)-1-(4-(2-(4-(dimethylamio)benzylidene)hydrazinyl)-4-oxobutyl)-2-methyl-1H-pyrrole-3-carboxylate]",69,67,15,"hMAOA inhibitory effect (decrease of enzyme activity) ([4]; 1 µM, vs control (pure hMAOA)): 40%; IC50 [4]: 0.821 µM; SI: hMAOB selectivity index = IC50(hMAOA)/IC50(hMAOB) [5]: 1.16; hMAOB inhibitory effect (decrease of enzyme activity) ([5]; 1 µM, vs control (pure hMAOB)): 45%; IC50 [5]: 0.71 µM"
